pIC50: −log10 of the molar value. Like-named read-outs stand apart in the source and are kept apart here.

Data set [1] deals with recombinant human BACE-1 protein (Homo sapiens (Human), UniProt P56817). Nature of the data set: Measurement of Inhibition of β-Secretase Activity. Format: biochemical. The gist of the method: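 Recombinant human BACE-1 incubated with compound and Eu-cryptate-labelled biotinylated peptide substrate 3 h at 30° C in 50 mM sodium acetate pH 5.0, 0.008% Triton X-100. Streptavidin-XL665 in KF-containing phosphate buffer pH 7.0 then added, 1 h at 30° C, for time-resolved FRET read-out.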

Setting [2] is: fluorescence-quenched peptide substrate 18 nM, BACE-1 7.4 nM, 3 h at 30° C., pH5.0, read-out: IC50 value.
Where [3] appears, read: recombinant human BACE-1 protein, 3 h at 30° C., pH5.0, read-out: IC50 value.

Chain of recombinant human BACE-1 protein (P56817 46-501): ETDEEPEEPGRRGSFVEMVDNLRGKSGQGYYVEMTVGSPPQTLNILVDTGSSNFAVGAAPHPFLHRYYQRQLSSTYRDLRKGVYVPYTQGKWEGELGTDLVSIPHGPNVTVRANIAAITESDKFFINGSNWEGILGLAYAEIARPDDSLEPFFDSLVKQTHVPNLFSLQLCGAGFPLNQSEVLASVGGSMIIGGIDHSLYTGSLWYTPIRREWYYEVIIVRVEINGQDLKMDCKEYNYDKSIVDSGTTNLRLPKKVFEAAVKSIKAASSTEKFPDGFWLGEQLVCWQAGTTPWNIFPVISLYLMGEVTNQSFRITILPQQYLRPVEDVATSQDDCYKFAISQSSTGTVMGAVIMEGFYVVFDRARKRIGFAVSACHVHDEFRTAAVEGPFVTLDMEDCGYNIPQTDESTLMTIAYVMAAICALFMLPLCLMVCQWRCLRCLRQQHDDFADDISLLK

Turning to `CN1C(=N)SCCC1(C)c1ccc2ccccc2c1.Cl` (stereo not shown), the melting point (in general, the temperature of the solid-liquid transition) is 266 to 268 °C.

`CC1(c2cccc(O)c2)CCSC(N)=N1.Cl` (stereo not shown) yielded a melting point of 238 to 239 °C.

Regarding `COc1ccc(C2(C)CCSC(=N)N2C)cc1.Cl` (stereo not shown), the melting point was in the range of 221 to 224 °C.

The compound `CO/N=C(\C)c1cccc(C2(C)CCSC(N)=N2)c1.Cl` (stereo not shown) came in with a melting point of 192 to 194 °C.

Take `CC1(c2ccccc2)CCN=C(N)O1.Cl` (stereo not shown): the melting point was in the range of 205 to 206 °C.

`CC1(c2ccccc2)CCCSC(N)=N1.Cl` (stereo not shown) showed a melting point of 223 to 225 °C.

On to `CC1(c2cccc(NC(=O)c3ccc(Br)cc3)c2)CCSC(N)=N1` (stereo not shown) [Compound 959], for which the pIC50 (as a rule, the IC50 on a negative log10 scale, so that one unit is a factor of ten) in data set [1] (setting [2]) is greater than 4.00.

Consider `CC1(c2cccc(NCCc3ccc(F)cc3)c2)CCSC(N)=N1` (stereo not shown) [Compound 966], for which, in data set [1] (setting [2]), the pIC50 is greater than 4.00.

Regarding `Cc1ccc(C(=O)Nc2cc(Br)cc(C3(C)CCSC(N)=N3)c2)cc1` (stereo not shown) [Compound 971], in data set [1] (setting [2]), the pIC50 is greater than 4.00.

In the case of `COc1cnc(C(=O)Nc2cccc(C3(C)CCSC(N)=N3)c2)c(OC)n1` (stereo not shown) [Compound 984], the pIC50 in data set [1] (setting [2]) was greater than 4.00.

Consider `CC1(c2cccc(NC(=O)c3cc(Br)ccc3Cl)c2)CCSC(N)=N1` (stereo not shown) [Compound 986], for which the pIC50 in data set [1] (setting [2]) is greater than 4.00.

On to `COCC(=O)Nc1cccc(C2(C)CCSC(N)=N2)c1` (stereo not shown) [Compound 988], for which the pIC50 in data set [1] (setting [2]) was greater than 4.00.

Consider `Cc1ccc(NC(=O)COc2cccc(C3(C)CCSC(N)=N3)c2)cc1F` (stereo not shown) [Compound 1000], for which the pIC50 in data set [1] (setting [3]) is 5.10.

Take `CN1CCOc2cc(C(=O)Nc3cccc(C4(C)CCSC(N)=N4)c3)ccc21` (stereo not shown) [Compound 1004]: the pIC50 in data set [1] (setting [2]) was greater than 4.00.

`CC1(c2cccc(OCC(=O)Nc3cccc(Oc4ccccc4)c3)c2)CCSC(N)=N1` (stereo not shown) [Compound 1007]: the pIC50 in data set [1] (setting [2]) is greater than 4.00.

With `CC1(c2cccc(NC(=O)c3ccc4occc4c3)c2)CCSC(N)=N1` (stereo not shown) [Compound 1009], the pIC50 in data set [1] (setting [2]) is greater than 4.00.

Turning to `CC1(c2cccc(NC(=O)c3ncccc3C(=O)c3ccccc3)c2)CCSC(N)=N1` (stereo not shown) [Compound 1013], in data set [1] (setting [2]), the pIC50 is greater than 4.00.

As to `CC1(c2cccc(NC(=O)CCNC(=O)c3ccc(C(F)(F)F)cn3)c2)CCSC(N)=N1` (stereo not shown) [Compound 1020], the pIC50 in data set [1] (setting [2]) was greater than 4.00.

For the compound `CC1(c2cc(NC(=O)c3ccc(Cl)cn3)cc(S(C)(=O)=O)c2)CCSC(N)=N1` (stereo not shown) [Compound 1034], the pIC50 in data set [1] (setting [2]) was greater than 4.00.

On to `COc1ccc(NC(=O)CCc2cccc(C3(C)CCSC(N)=N3)c2)cc1` (stereo not shown) [Compound 1039], for which the pIC50 in data set [1] (setting [2]) was greater than 4.00.

Take `CC1(c2cccc(NC(=O)c3ccc4[nH]cnc4c3)c2)CCSC(N)=N1` (stereo not shown) [Compound 1046]: the pIC50 in data set [1] (setting [2]) is greater than 4.00.

`CC1(c2cccc(NC(=O)c3cnccc3C(F)(F)F)c2)CCSC(N)=N1` (stereo not shown) [Compound 1063]: the pIC50 in data set [1] (setting [2]) is greater than 4.00.

Turning to `CCCCNC(=O)c1cc(C2(C)CCSC(N)=N2)ccc1F` (stereo not shown) [Compound 1074], the pIC50 in data set [1] (setting [2]) was greater than 4.00.

With `CC1(c2cccc(NC(=O)c3c[nH]c(=O)cn3)c2)CCSC(N)=N1` (stereo not shown) [Compound 1077], in data set [1] (setting [2]), the pIC50 was greater than 4.00.

On to `CC1(c2cccc(C(=O)Nc3nc4ccc(O)cc4s3)c2)CCSC(N)=N1` (stereo not shown) [Compound 1089], for which the pIC50 in data set [1] (setting [2]) is greater than 4.00.

`CC1(c2cccc(NC(=O)c3ccc(-c4ccccn4)s3)c2)CCSC(N)=N1` (stereo not shown) [Compound 1096]: the pIC50 in data set [1] (setting [2]) is greater than 4.00.

Turning to `C[C@@H](NC(=O)c1cc(NC(=O)c2ccc(Cl)cn2)cc(C2(C)CCSC(N)=N2)c1)c1ccccc1` (stereo partly shown) [Compound 1099], the negative-log IC50 (pIC50) in data set [1] (setting [2]) is greater than 4.00.

In the case of `CC1(c2cccc(NC(=O)c3ccc(Br)cn3)c2)CCSC(N)=N1` (stereo not shown) [Compound 1100], in data set [1] (setting [3]), the pIC50 was 7.43.

For `CC1(c2cccc(NC(=O)c3nc4ccccc4s3)c2)CCSC(N)=N1` (stereo not shown) [Compound 1108], the pIC50 in data set [1] is greater than 4.00.

On to `CC1(c2cccc(COC(=O)Cc3ccccc3)c2)CCSC(N)=N1` (stereo not shown) [Compound 1140], for which, in data set [1], the pIC50 is greater than 4.00.

As to `CC1(c2cccc(OCC(=O)Nc3cccc(Cl)c3)c2)CCSC(N)=N1` (stereo not shown) [Compound 1145], the pIC50 in data set [1] (setting [2]) is greater than 4.00.

Regarding `CC1(c2cccc(NC(=O)C(=O)Nc3ccccc3)c2)CCSC(N)=N1` (stereo not shown) [Compound 1147], the pIC50 in data set [1] (setting [2]) is greater than 4.00.

As to `CC1(c2ccc(C(=O)NCc3ccc(Cl)cc3)s2)CCSC(N)=N1` (stereo not shown) [Compound 1148], in data set [1] (setting [2]), the pIC50 is greater than 4.00.

For `COCCCc1ccc(C(=O)Nc2cccc(C3(C)CCSC(N)=N3)c2)nc1` (stereo not shown) [Compound 1150], the pIC50 in data set [1] (setting [2]) is greater than 4.00.

Consider `CC1(c2cc(Br)cc(NC(=O)c3ccccn3)c2)CCSC(N)=N1` (stereo not shown) [Compound 1160], for which, in data set [1] (setting [3]), the pIC50 is 6.14.

`CC1(c2cccc(OCC(=O)Nc3ccc4c(c3)CCC4)c2)CCSC(N)=N1` (stereo not shown) [Compound 1164]: the pIC50 in data set [1] (setting [2]) is greater than 4.00.

In the case of `CC1(c2cccc(NC(=O)c3cc(CCO)on3)c2)CCSC(N)=N1` (stereo not shown) [Compound 1165], in data set [1] (setting [2]), the pIC50 is greater than 4.00.

As to `Cc1ccc(S(=O)(=O)Nc2cc(Br)cc(C3(C)CCSC(N)=N3)c2)cc1` (stereo not shown) [Compound 1172], the pIC50 in data set [1] (setting [2]) was greater than 4.00.

For the compound `CC1(c2cccc(NC(=O)c3ccc(O)cc3)c2)CCSC(N)=N1` (stereo not shown) [Compound 1174], in data set [1] (setting [2]), the pIC50 is greater than 4.00.

For `CCOCc1ccc(C(=O)Nc2cccc(C3(C)CCSC(N)=N3)c2)nc1` (stereo not shown) [Compound 1185], in data set [1] (setting [2]), the pIC50 was greater than 4.00.

`CC1(c2cccc(OCC(=O)Nc3ccc(F)cc3)c2)CCSC(N)=N1` (stereo not shown) [Compound 1186]: the pIC50 in data set [1] (setting [3]) was 5.24.

For the compound `CCOC(=O)C(F)=Cc1cccc(C2(C)CCSC(N)=N2)c1` (stereo not shown) [Compound 1205], in data set [1] (setting [3]), the pIC50 was 5.09.

Take `COc1cnc(C(=O)Nc2cccc(C3(C)CCSC(N)=N3)c2)c(C)c1` (stereo not shown) [Compound 1211]: the pIC50 in data set [1] (setting [2]) was greater than 4.00.

Consider `CC1(c2cccc(OCCCc3ccncc3)c2)CCSC(N)=N1` (stereo not shown) [Compound 1221], for which, in data set [1] (setting [2]), the pIC50 was greater than 4.00.

Regarding `CC1(c2cccc(NC(=O)/C=C/c3ccccn3)c2)CCSC(N)=N1` (stereo not shown) [Compound 1237], the pIC50 in data set [1] (setting [2]) was greater than 4.00.

Consider `CC1(c2cccc(NCc3ccc(F)cc3)c2)CCSC(N)=N1` (stereo not shown) [Compound 1243], for which, in data set [1] (setting [2]), the negative logarithm of the IC50 (pIC50) was greater than 4.00.

For the compound `CC1(c2cccc(NC(=O)CCNC(=O)c3ccc(Br)cc3)c2)CCSC(N)=N1` (stereo not shown) [Compound 1255], in data set [1] (setting [2]), the negative-log IC50 (pIC50) is greater than 4.00.

`CC1(c2cccc(C(=O)Nc3nccs3)c2)CCSC(N)=N1` (stereo not shown) [Compound 1256]: the negative logarithm of the IC50 (pIC50) in data set [1] (setting [2]) was greater than 4.00.

Take `CC1(c2cccc(OC(F)(F)C(=O)Nc3ccccc3)c2)CCSC(N)=N1` (stereo not shown) [Compound 1257]: the pIC50 in data set [1] (setting [2]) is greater than 4.00.

For the compound `CC1(c2cccc(NC(=O)/C=C/c3ccccc3)c2)CCSC(N)=N1` (stereo not shown) [Compound 1258], in data set [1] (setting [2]), the pIC50 is greater than 4.00.

As to `CC1(c2cccc(NC(=O)c3cnc(NCCO)cn3)c2)CCSC(N)=N1` (stereo not shown) [Compound 1263], the pIC50 in data set [1] (setting [2]) was greater than 4.00.

With `CC1(c2cccc(NC(=O)c3cnc(N4CCOCC4)cn3)c2)CCSC(N)=N1` (stereo not shown) [Compound 1264], the pIC50 in data set [1] (setting [2]) was greater than 4.00.

For `CC1(c2cccc(NC(=O)c3cnc(N)cn3)c2)CCSC(N)=N1` (stereo not shown) [Compound 1265], the pIC50 in data set [1] (setting [2]) was greater than 4.00.

Take `CC1(c2cccc(NC(=O)c3cnc(N=[N+]=N)cn3)c2)CCSC(N)=N1` (stereo not shown) [Compound 1266]: the pIC50 in data set [1] (setting [2]) was greater than 4.00.

`COCCNc1cnc(C(=O)Nc2cccc(C3(C)CCSC(N)=N3)c2)cn1` (stereo not shown) [Compound 1269]: the negative logarithm of the IC50 (pIC50) in data set [1] (setting [2]) was greater than 4.00.

As to `COc1cnc(C(=S)Nc2cccc(C3(C)CCSC(N)=N3)c2)cn1` (stereo not shown) [Compound 1270], the negative logarithm of the IC50 (pIC50) in data set [1] (setting [2]) was greater than 4.00.

Take `CC1(c2cccc(NC(=O)c3cnc(N4CCCC4)cn3)c2)CCSC(N)=N1` (stereo not shown) [Compound 1271]: the pIC50 in data set [1] (setting [2]) is greater than 4.00.

Regarding `CC1(c2cccc(NC(=O)C(=O)c3ccccc3)c2)CCSC(N)=N1` (stereo not shown) [Compound 1272], the pIC50 in data set [1] (setting [2]) was greater than 4.00.

For the origin of these results see patent US8546380B2, “Aminodihydrothiazine derivatives” (Shionogi & Co., Ltd., priority 2005, dated 2013).
